Measurements taken from ChEMBL document CHEMBL6087462, “Cuminaldehyde Potentiates Antiproteolytic Peptide Efficacy via Parallel Pathways of Enhanced Inner Membrane-Damaging Activity and Inhibition of Bacterial Energy Metabolism” (J Med Chem, 2025).

Columns and labels:
Escherichia coli [1] = test: Synergistic antimicrobial activity against Escherichia coli K88 assessed as fractional inhibitory concentration index in presence of cuminaldehyde by checkerboard broth microdilution assay; assay type: functional
Escherichia coli [2] = test: Synergistic antimicrobial activity against Escherichia coli K88 assessed as fractional inhibitory concentration by checkerboard broth microdilution assay; assay type: functional
Escherichia coli [3] = test: Synergistic antimicrobial activity against Escherichia coli 25922 assessed as fractional inhibitory concentration index in presence of citral by checkerboard broth microdilution assay; assay type: functional
[4] = test system: Staphylococcus epidermidis; test: Synergistic antimicrobial activity against Staphylococcus epidermidis 12228 assessed as fractional inhibitory concentration index in presence of citronellal by checkerboard broth microdilution assay; assay type: functional
[5] = Synergistic antimicrobial activity against Salmonella enterica subsp. enterica serovar Pullorum 7913 assessed as fractional inhibitory concentration index in presence of citral by checkerboard broth microdilution assay; assay type: functional
Staphylococcus aureus [6] = test: Antimicrobial activity against Staphylococcus aureus 43300 assessed as reduction in microbial growth by CLSI based broth microdilution method; assay type: functional
Staphylococcus aureus [7] = test: Synergistic antimicrobial activity against Staphylococcus aureus 25923 assessed as fractional inhibitory concentration index in presence of cuminaldehyde by checkerboard broth microdilution assay; assay type: functional
Escherichia coli [8] = test: Synergistic antimicrobial activity against Escherichia coli K99 assessed as fractional inhibitory concentration index in presence of perillaldehyde by checkerboard broth microdilution assay; assay type: functional
[9] = test system: Staphylococcus epidermidis; test: Antimicrobial activity against Staphylococcus epidermidis ATCC 12228 assessed as cuminaldehyde MIC by CLSI based broth microdilution method; assay type: functional
Escherichia coli [10] = test: Drug resistance, ratio of MIC for Escherichia coli ATCC 25922 after 30 passages to MIC for Escherichia coli ATCC 25922 […] after initial exposure; assay type: functional
Staphylococcus aureus [11] = test: Antimicrobial activity against Staphylococcus aureus ATCC 29213 assessed as reduction in microbial growth in presence of cuminaldehyde by CLSI based broth microdilution method; assay type: functional
Enterococcus faecalis [12] = test: Antimicrobial activity against Enterococcus faecalis ATCC 29212 assessed as reduction in microbial growth by CLSI based broth microdilution method; assay type: functional
Escherichia coli [13] = test: Synergistic antimicrobial activity against Escherichia coli K88 assessed as fractional inhibitory concentration index in presence of citronellal by checkerboard broth microdilution assay; assay type: functional
Escherichia coli [14] = test: Synergistic antimicrobial activity against Escherichia coli K99 assessed as fractional inhibitory concentration by checkerboard broth microdilution assay; assay type: functional
Salmonella typhimurium [15] = test: Synergistic antimicrobial activity against Salmonella typhimurium ATCC 7731 assessed as fractional inhibitory concentration by checkerboard broth microdilution assay; assay type: functional, Salmonella enterica subsp. enterica serovar Typhimurium
Salmonella typhimurium [16] = test: Synergistic antimicrobial activity against Salmonella typhimurium ATCC 14028 assessed as fractional inhibitory concentration by checkerboard broth microdilution assay; assay type: functional, Salmonella enterica subsp. enterica serovar Typhimurium
Escherichia coli [17] = test: Antimicrobial activity against Escherichia coli UB 1005 assessed as reduction in microbial growth in presence of cuminaldehyde by CLSI based broth microdilution method; assay type: functional
Escherichia coli [18] = test: Synergistic antimicrobial activity against Escherichia coli K99 assessed as fractional inhibitory concentration index in presence of thymol by checkerboard broth microdilution assay; assay type: functional
Salmonella typhimurium [19] = test: Synergistic antimicrobial activity against Salmonella typhimurium 7731 assessed as fractional inhibitory concentration index in presence of cuminaldehyde by checkerboard broth microdilution assay; assay type: functional, Salmonella enterica subsp. enterica serovar Typhimurium
Escherichia coli [20] = test: Synergistic antimicrobial activity against Escherichia coli 078 assessed as fractional inhibitory concentration index in presence of perillaldehyde by checkerboard broth microdilution assay; assay type: functional, 78
Pseudomonas aeruginosa [21] = test: Antimicrobial activity against Pseudomonas aeruginosa ATCC 27853 assessed as reduction in microbial growth in presence of cuminaldehyde by CLSI based broth microdilution method; assay type: functional
Escherichia coli [22] = test: Synergistic antimicrobial activity against Escherichia coli UB1005 assessed as fractional inhibitory concentration index in presence of cuminaldehyde by checkerboard broth microdilution assay; assay type: functional
Staphylococcus aureus [23] = test: Synergistic antimicrobial activity against Staphylococcus aureus 43300 assessed as fractional inhibitory concentration index in presence of citronellal by checkerboard broth microdilution assay; assay type: functional
[24] = test system: Staphylococcus epidermidis; test: Synergistic antimicrobial activity against Staphylococcus epidermidis 12228 assessed as fractional inhibitory concentration index in presence of perillaldehyde by checkerboard broth microdilution assay; assay type: functional
[25] = Synergistic antimicrobial activity against Salmonella enterica subsp. enterica serovar Pullorum 7913 assessed as fractional inhibitory concentration index in presence of carvacrol by checkerboard broth microdilution assay; assay type: functional
Staphylococcus aureus [26] = test: Antimicrobial activity against Staphylococcus aureus ATCC 29213 assessed as cuminaldehyde MIC by CLSI based broth microdilution method; assay type: functional
Escherichia coli [27] = test: Synergistic antimicrobial activity against Escherichia coli 25922 assessed as fractional inhibitory concentration index in presence of perillaldehyde by checkerboard broth microdilution assay; assay type: functional
Salmonella typhimurium [28] = test: Antimicrobial activity against Salmonella typhimurium ATCC 7731 assessed as cuminaldehyde MIC by CLSI based broth microdilution method; assay type: functional, Salmonella enterica subsp. enterica serovar Typhimurium; details: Salmonella enterica
[29] = test system: Staphylococcus epidermidis; test: Synergistic antimicrobial activity against Staphylococcus epidermidis 12228 assessed as fractional inhibitory concentration index in presence of cuminaldehyde by checkerboard broth microdilution assay; assay type: functional
Pseudomonas aeruginosa [30] = test: Synergistic antimicrobial activity against Pseudomonas aeruginosa 27853 assessed as fractional inhibitory concentration index in presence of citral by checkerboard broth microdilution assay; assay type: functional
Salmonella typhimurium [31] = test: Synergistic antimicrobial activity against Salmonella typhimurium 14028 assessed as fractional inhibitory concentration index in presence of carvacrol by checkerboard broth microdilution assay; assay type: functional, Salmonella enterica subsp. enterica serovar Typhimurium
Escherichia coli [32] = test: Synergistic antimicrobial activity against Escherichia coli UB 1005 assessed as fractional inhibitory concentration by checkerboard broth microdilution assay; assay type: functional
Staphylococcus aureus [33] = test: Synergistic antimicrobial activity against Staphylococcus aureus ATCC 29213 assessed as fractional inhibitory concentration by checkerboard broth microdilution assay; assay type: functional
Escherichia coli [34] = test: Antimicrobial activity against Escherichia coli 078 assessed as reduction in microbial growth in presence of cuminaldehyde by CLSI based broth microdilution method; assay type: functional; details: 78
Escherichia coli [35] = test: Synergistic antimicrobial activity against Escherichia coli K88 assessed as fractional inhibitory concentration index in presence of citral by checkerboard broth microdilution assay; assay type: functional
Staphylococcus aureus [36] = test: Synergistic antimicrobial activity against Staphylococcus aureus 43300 assessed as fractional inhibitory concentration by checkerboard broth microdilution assay; assay type: functional
Escherichia coli [37] = test: Synergistic antimicrobial activity against Escherichia coli UB1005 assessed as fractional inhibitory concentration index in presence of thymol by checkerboard broth microdilution assay; assay type: functional
Salmonella typhimurium [38] = test: Synergistic antimicrobial activity against Salmonella typhimurium 14028 assessed as fractional inhibitory concentration index in presence of thymol by checkerboard broth microdilution assay; assay type: functional, Salmonella enterica subsp. enterica serovar Typhimurium
Enterococcus faecalis [39] = test: Antimicrobial activity against Enterococcus faecalis ATCC 29212 assessed as reduction in microbial growth in presence of cuminaldehyde by CLSI based broth microdilution method; assay type: functional
Pseudomonas aeruginosa [40] = test: Antimicrobial activity against Pseudomonas aeruginosa ATCC 27853 assessed as reduction in microbial growth by CLSI based broth microdilution method; assay type: functional
Enterococcus faecalis [41] = test: Synergistic antimicrobial activity against Enterococcus faecalis ATCC 29212 assessed as fractional inhibitory concentration by checkerboard broth microdilution assay; assay type: functional
Enterococcus faecalis [42] = test: Synergistic antimicrobial activity against Enterococcus faecalis 29212 assessed as fractional inhibitory concentration index in presence of cuminaldehyde by checkerboard broth microdilution assay; assay type: functional
Staphylococcus aureus [43] = test: Synergistic antimicrobial activity against Staphylococcus aureus 29213 assessed as fractional inhibitory concentration index in presence of cuminaldehyde by checkerboard broth microdilution assay; assay type: functional

CC[C@H](C)[C@H](NC(=O)[C@@H](NC(=O)[C@@H](CCCNC(=N)N)NC(=O)[C@H](C)NC(=O)[C@H](C)NC(=O)[C@@H](N)Cc1cccc2ccccc12)[C@@H](C)CC)C(=O)N[C@@H](CC(C)C)C(=O)N[C@H](CCCNC(=N)N)C(=O)N[C@@H](Cc1c[nH]c2ccccc12)C(=O)N[C@H](CCCNC(=N)N)C(=O)N[C@@H](Cc1ccccc1)C(=O)N[C@@H](CCCNC(=N)N)C(=O)O
fractional inhibitory concentration index (FICI) (Escherichia coli [1]): 0.125 | FIC (Escherichia coli [2]): 0.063 | fractional inhibitory concentration index (FICI) (Escherichia coli [3]): 0.25 | fractional inhibitory concentration index (FICI) [4]: 0.25 | fractional inhibitory concentration index (FICI) [5]: 0.25 | MIC (Staphylococcus aureus [6]): 8 µg/mL | fractional inhibitory concentration index (FICI) (Staphylococcus aureus [7]): 0.188 | fractional inhibitory concentration index (FICI) (Escherichia coli [8]): 0.375 | MIC [9]: 256 µg/mL | Ratio (Escherichia coli [10]): 2 | MIC (Staphylococcus aureus [11]): 2 µg/mL | MIC (Enterococcus faecalis [12]): 8 µg/mL | fractional inhibitory concentration index (FICI) (Escherichia coli [13]): 0.156 | FIC (Escherichia coli [14]): 0.25 | FIC (Salmonella typhimurium [15]): 0.063 | FIC (Salmonella typhimurium [16]): 0.25 | MIC (Escherichia coli [17]): 0.5 µg/mL | fractional inhibitory concentration index (FICI) (Escherichia coli [18]): 0.5 | fractional inhibitory concentration index (FICI) (Salmonella typhimurium [19]): 0.125 | fractional inhibitory concentration index (FICI) (Escherichia coli [20]): 0.188 | MIC (Pseudomonas aeruginosa [21]): 2 µg/mL | fractional inhibitory concentration index (FICI) (Escherichia coli [22]): 0.188 | fractional inhibitory concentration index (FICI) (Staphylococcus aureus [23]): 0.188 | fractional inhibitory concentration index (FICI) [24]: 0.375 | fractional inhibitory concentration index (FICI) [25]: 0.625 | MIC (Staphylococcus aureus [26]): 512 µg/mL | fractional inhibitory concentration index (FICI) (Escherichia coli [27]): 0.156 | MIC (Salmonella typhimurium [28]): 1020 µg/mL | fractional inhibitory concentration index (FICI) [29]: 0.375 | fractional inhibitory concentration index (FICI) (Pseudomonas aeruginosa [30]): 0.141 | fractional inhibitory concentration index (FICI) (Salmonella typhimurium [31]): 0.5 | FIC (Escherichia coli [32]): 0.125 | FIC (Staphylococcus aureus [33]): 0.25 | MIC (Escherichia coli [34]): 2 µg/mL | fractional inhibitory concentration index (FICI) (Escherichia coli [35]): 0.188 | FIC (Staphylococcus aureus [36]): 0.25 | fractional inhibitory concentration index (FICI) (Escherichia coli [37]): 0.25 | fractional inhibitory concentration index (FICI) (Salmonella typhimurium [38]): 0.313 | MIC (Enterococcus faecalis [39]): 1 µg/mL | MIC (Pseudomonas aeruginosa [40]): 32 µg/mL | FIC (Enterococcus faecalis [41]): 0.125 | fractional inhibitory concentration index (FICI) (Enterococcus faecalis [42]): 0.313 | fractional inhibitory concentration index (FICI) (Staphylococcus aureus [43]): 0.094
